Laboratory results reported in the SangsterLogP compilation.

test: not given

Q: With `BrC1CC2CCC1C2` (stereo unspecified) as the compound, how does the logP read?
A: 3.54

Q: Which logP does the source give for `BrC12CC3CC1C2C3` here?
A: 3.11

test: method code SF-AS, from DOI: 10.1021/je9900629

Q: With `C1=CC2C=CC1C2` as the compound, how does the logP read?
A: 2.67

Q: With `C1=CC2CCC1C2` as the compound, how does the logP read?
A: 3.24

Q: With `OC1CC2C=CC1C2` (stereo unspecified) as the compound, how does the logP read?
A: 1.24

test: method code SF-HPLC, from DOI: 10.1021/je9900629

Q: With `C1C2C3C2C2C1C32` (stereo unspecified) as the compound, how does the logP read?
A: 2.9

Q: For `ClC1CC2CCC1C2` (stereo unspecified), which logP is on record?
A: 3.35

Q: For `OC1C2CC3C1C3C2O` (stereo unspecified), which logP is on record?
A: -0.42

Q: With `OC(C1CC1)C1CC1` as the compound, how does the logP read?
A: 1.07

Q: Which logP does the source give for `C1CC2CCC1C2` here?
A: 3.78

Q: Which logP does the source give for `OC1CC2CCC1C2` (stereo unspecified) here?
A: 1.45

Q: For `O=C1C2CC3C(C2)C13`, which logP is on record?
A: 0.81

Q: With `OC1C2CCC(C2)C1O` (stereo unspecified) as the compound, how does the logP read?
A: 0.4

Q: For `OC1CC2CCC1C2O` (stereo unspecified), which logP is on record?
A: 0.4

Q: With `C1CC2CC1C1OC21` (stereo unspecified) as the compound, how does the logP read?
A: 1.58

Q: Which logP does the source give for `OCC1CC2CCC1C2` (stereo unspecified) here?
A: 1.99
